# Source: publication PMC10619133, “The catechol moiety of obafluorin is essential for antibacterial activity” (RSC Chemical Biology, 2023)
# “Also recorded” adds a separate entry of the source. Like-named read-outs stand apart in the source and are kept apart here.
# How the values were obtained:
# E. coli BW25113 Δ6 = assay: Spot-on-lawn MIC bioassay, TBDT knock-out mutant; assay type: cell-based; conditions: for MIC: Escherichia coli
# Description: (§1) Indicator strains were grown for 16–18 h in LB (5 mL) by inoculation from a single colony. An aliquot of the resulting culture (500 μL) was then used to inoculate LB (50 mL in 250 mL Erlenmeyer flasks), followed by orbital shaking at 250 rpm until they reached an OD600 of 0.3–0.4. These cultures were then diluted 1 : 10 with molten soft nutrient agar (SNA), before pouring into appropriately sized Petri dishes to set. Serial dilutions of the test compounds (from 256 μg mL^−1 to 1 μg mL^−1 plus an additional sample at 1000 μg mL^−1) were prepared in acetonitrile (ACN), and 4 μL of each sample was applied directly onto the SNA surface. Kanamycin (50 μg mL^−1), apramycin (50 μg mL^−1) or aureobasidin A (0.2 μg mL^−1) were used as positive controls, as appropriate, and ACN or water (4 μL) were used as negative controls. […] Experiments were carried out in at least triplicate for each strain.
# (§2) The method was the same as for the antibacterial MIC assays described above, with the following modifications: for excess iron, Fe(NO3)3·9H2O stock (400 mM) was added to give a final concentration of 1.5 or 2.0 mM; for iron depletion, bipy stock (1 M) was added to give a final concentration of 150 μM. For MRSA, 1 was further diluted to 0.5 0.25 and 0.125 μg mL^−1 due to a decrease in MIC under excess iron conditions. The general effect of excess iron on the activity of alternative antibiotics was determined by performing a similar serial dilution of carbenicillin, kanamycin, streptomycin, nitrofurantoin and chloramphenicol in the presence of Fe^3+.
# E. coli BW25113 Δ3 = assay: Spot-on-lawn MIC bioassay, TBDT knock-out mutant; assay type: cell-based; conditions: for MIC: Escherichia coli
# Description: as §1, §2
# E. coli NR698 = assay: Spot-on-lawn MIC bioassay; assay type: cell-based; conditions: Escherichia coli, NR698
# Description: as §1
# S. cerevisiae = assay: Spot-on-lawn MIC bioassay; assay type: cell-based, S. cerevisiae NCYC 2939; conditions: Saccharomyces cerevisiae
# Description: as §1
# MRSA = assay: Spot-on-lawn MIC bioassay; assay type: cell-based, Methicillin-resistant Staphylococcus aureus; conditions: for MIC: Staphylococcus aureus, MRSA, read-out: MIC
# Description: as §1, §2
# E. coli 25922 = assay: Spot-on-lawn MIC bioassay; assay type: cell-based, E. coli ATCC 25922
# Description: as §1, §2
# Streptococcus pyogenes = system: Streptococcus pyogenes; parameters: method as in doi:10.1021/jo00350a010; conditions: dosed systemically; cited from earlier work
# EcThrRS = target: T1, EcThrRS (Escherichia coli, UniProt P0A8M3); assay: Aminoacylation assay; assay type: biochemical, E. coli; conditions: enzyme 10 nM
# T1 construct: His6 (N); made in house; host or cells: E. coli NiCo21(DE3)
# Description: (§3) To measure the effects of 1–4 on ThrRS canonical tRNA charging activity, an assay modified from that reported by Ruan et al.[53] was used, where active enzyme was incubated with its necessary substrates and its activity measured using ^14C labeled Thr and a liquid scintillation counter. Purified ThrRS protein (10 nM) was pre-incubated with varying concentrations of compounds 1–4 or ACN for 10 min. After pre-incubation, ThrRS samples were added to a master reaction mixture with the final component concentrations of HEPES (100 mM, pH 7.0), ATP (4 mM), MgCl2 (10 mM), L-[U-^14C]threonine (50 μM, Moravek Inc.), and tRNA^Thr (5 μM). This mixture was incubated at room temperature for 10 min, with samples taken at 1, 2.5, 5, and 10 min. At each time point, a 7 μL aliquot was spotted onto a 5% trichloroacetic acid (TCA) presoaked 3 MM Whatman paper (Cytiva) squares (repeated in triplicate). After allowing the spots to dry, the Whatman paper was washed three times with 5% TCA, and once with 95% EtOH. The Whatman paper was dried and the counts on each square of paper analyzed using a Tri-Carb 2910 TR liquid scintillation counter using Hydrofluor Liquid Scintillation Fluid (National Diagnostics). To calculate IC50 values, fractional initial velocities (velocity of inhibited reaction/velocity in the absence of inhibitor) were plotted against the log of 1 concentration and then fitted to eqn (1), using GraphPad Prism.1 [drawing 1]
# P. aeruginosa PA01 = assay: Spot-on-lawn MIC bioassay; assay type: cell-based; conditions: for MIC: Pseudomonas aeruginosa
# Description: as §1, §2
# E. coli BW25113 = assay: Spot-on-lawn MIC bioassay; assay type: cell-based; conditions: for MIC: Escherichia coli
# Description: as §1, §2
# B. subtilis = assay: Spot-on-lawn MIC bioassay; assay type: cell-based, B. subtilis EC 1524; conditions: Bacillus subtilis, standard conditions, read-out: MIC
# Description: as §1
# ObaO = assay: Aminoacylation assay; assay type: biochemical, P. fluorescens
# Description: as §3
# PfThrRS = PfThrRS (Pseudomonas fluorescens, UniProt C3JZN7); assay: Aminoacylation assay; assay type: biochemical, P. fluorescens; conditions: enzyme 10 nM; read-out: concentration of full inhibition
# Description: as §3
# [1] = BW25113, iron replete, +Fe^3+ (2 mM)
# [2] = BW25113, iron depleted, +bipy (150 μM)
# [3] = with vs without Fe^3+ in growth agar
# T1 sequence (P0A8M3 whole entry): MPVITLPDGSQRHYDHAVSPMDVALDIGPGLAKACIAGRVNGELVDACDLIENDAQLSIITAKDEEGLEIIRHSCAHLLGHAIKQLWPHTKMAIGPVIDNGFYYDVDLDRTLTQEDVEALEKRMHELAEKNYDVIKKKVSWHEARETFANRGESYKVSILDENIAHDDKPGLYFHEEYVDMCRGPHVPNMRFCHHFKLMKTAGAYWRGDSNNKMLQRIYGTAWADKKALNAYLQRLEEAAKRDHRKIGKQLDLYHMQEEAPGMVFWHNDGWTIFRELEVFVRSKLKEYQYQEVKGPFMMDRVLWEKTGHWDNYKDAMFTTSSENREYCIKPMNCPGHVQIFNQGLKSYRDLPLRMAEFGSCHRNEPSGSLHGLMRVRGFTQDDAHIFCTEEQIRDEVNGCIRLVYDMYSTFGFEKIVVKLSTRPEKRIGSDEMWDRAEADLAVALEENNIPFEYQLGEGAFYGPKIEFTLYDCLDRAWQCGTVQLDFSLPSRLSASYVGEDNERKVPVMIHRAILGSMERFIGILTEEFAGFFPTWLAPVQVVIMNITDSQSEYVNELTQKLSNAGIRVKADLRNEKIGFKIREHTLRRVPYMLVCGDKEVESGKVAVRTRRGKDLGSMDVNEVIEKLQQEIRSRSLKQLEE
# Chain of PfThrRS (C3JZN7 whole entry): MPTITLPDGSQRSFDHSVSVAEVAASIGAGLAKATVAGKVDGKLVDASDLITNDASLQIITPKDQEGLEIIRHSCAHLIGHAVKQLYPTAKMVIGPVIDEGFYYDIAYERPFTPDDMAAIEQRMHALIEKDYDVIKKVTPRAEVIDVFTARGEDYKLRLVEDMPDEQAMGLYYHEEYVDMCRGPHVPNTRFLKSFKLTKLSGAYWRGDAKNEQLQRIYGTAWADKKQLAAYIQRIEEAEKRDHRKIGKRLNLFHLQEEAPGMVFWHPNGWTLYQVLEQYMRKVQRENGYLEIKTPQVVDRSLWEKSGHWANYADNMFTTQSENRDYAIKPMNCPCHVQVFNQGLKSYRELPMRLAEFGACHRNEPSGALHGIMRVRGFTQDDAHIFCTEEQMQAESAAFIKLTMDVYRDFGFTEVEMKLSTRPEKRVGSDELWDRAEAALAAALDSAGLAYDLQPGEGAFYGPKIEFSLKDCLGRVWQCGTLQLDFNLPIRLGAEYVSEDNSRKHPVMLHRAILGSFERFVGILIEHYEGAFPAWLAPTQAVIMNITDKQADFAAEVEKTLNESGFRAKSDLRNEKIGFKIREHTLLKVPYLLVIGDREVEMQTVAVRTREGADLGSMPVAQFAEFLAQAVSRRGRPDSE
structure (smiles),measurement,setting,value
"O=C(N[C@@H]1C(=O)O[C@@H]1Cc1ccc([N+](=O)[O-])cc1)c1cccc(O)c1O [compound 1, Obafluorin]",MIC,E. coli BW25113 Δ6; [1],≤ 1 µg/mL
same,MIC,"E. coli BW25113 Δ6; BW25113, standard conditions",256 µg/mL
same,decrease in MIC upon addition of Fe^3+,E. coli BW25113 Δ6; with vs without Fe^3+,≥ 256 fold
same,MIC,E. coli BW25113 Δ3; [2],256 µg/mL
same,MIC,E. coli BW25113 Δ3; [1],≤ 1 µg/mL
same,MIC,"E. coli BW25113 Δ3; BW25113, standard conditions",256 µg/mL
same,decrease in MIC upon addition of Fe^3+,E. coli BW25113 Δ3; with vs without Fe^3+,≥ 256 fold
same,MIC,E. coli NR698,4 µg/mL
same,MIC,"S. cerevisiae; Figure S12 legend, read-out: Minimum inhibitory concentration",1000 µg/mL
same,MIC,"S. cerevisiae; standard conditions, read-out: MIC",1000 µg/mL
same,MIC,MRSA; +Fe^3+ (2 mM) in the media,0.25 µg/mL
same,MIC,"MRSA; spot-on-lawn, standard conditions",2 µg/mL
same,decrease in MIC with added Fe^3+,MRSA; [3],8 fold
same,MIC,"E. coli 25922; Escherichia coli, 25922, iron depleted, +bipy (150 μM)",256 µg/mL
same,MIC,"E. coli 25922; Escherichia coli, 25922, +Fe^3+ (2 mM) in the media, read-out: MIC",≤ 1 µg/mL
same,MIC,"E. coli 25922; Escherichia coli, 25922, spot-on-lawn, standard conditions",256 µg/mL
same,decrease in MIC with added Fe^3+,E. coli 25922; [3],≥ 256 fold
same,protection of infected mice (in words),Streptococcus pyogenes,can protect mice
same,toxicity in mice (in words),Streptococcus pyogenes,no observable toxicity
same,concentration at which complete inhibition was observed,EcThrRS,around 100 nM
same,IC50,"EcThrRS; 10 min preincubation with compound, read-out: IC50",35 ± 4 nM
same,MIC,"P. aeruginosa PA01; PA01, +Fe^3+ (1.5 mM) in the media",≤ 1 µg/mL
same,MIC,"P. aeruginosa PA01; PA01, spot-on-lawn, standard conditions",128 µg/mL
same,decrease in MIC with added Fe^3+,P. aeruginosa PA01; [3],≥ 128 fold
same,MIC,E. coli BW25113; [2],256 µg/mL
same,MIC,"E. coli BW25113; BW25113, iron replete, +Fe^3+ (2 mM), read-out: MIC",≤ 1 µg/mL
same,MIC,"E. coli BW25113; BW25113, standard conditions",256 µg/mL
same,decrease in MIC upon addition of Fe^3+,E. coli BW25113; with vs without Fe^3+,≥ 256 fold
same,MIC,B. subtilis,4 µg/mL
same,inhibition of aminoacylation (in words),ObaO; 0–5 μM (up to 5000 nM),no observable inhibition; also recorded: no significant inhibition
same,IC50,"ObaO; enzyme 10 nM, 10 min preincubation, 0–5 μM compound",not inhibited; also recorded: No inhibition
same,IC100,PfThrRS,0.01 µM
